In PMC4774911, “Biochemical Screening of Five Protein Kinases from Plasmodium falciparum against 14,000 Cell-Active Compounds” (PLoS ONE, 2016):
Read-outs that look alike come from different tables or passages of the source.

What was measured:
[1] = molecular target: T1, Plasmodium falciparum calcium-dependent protein kinase 1 (CDPK1) (Plasmodium falciparum, UniProt P62344); experiment: CDPK1 Kinase-Glo ATP-consumption screen and dose-response; assay type: biochemical
T1 construct: 6-Histidine (N); made in house
T1 sequence (P62344 whole entry): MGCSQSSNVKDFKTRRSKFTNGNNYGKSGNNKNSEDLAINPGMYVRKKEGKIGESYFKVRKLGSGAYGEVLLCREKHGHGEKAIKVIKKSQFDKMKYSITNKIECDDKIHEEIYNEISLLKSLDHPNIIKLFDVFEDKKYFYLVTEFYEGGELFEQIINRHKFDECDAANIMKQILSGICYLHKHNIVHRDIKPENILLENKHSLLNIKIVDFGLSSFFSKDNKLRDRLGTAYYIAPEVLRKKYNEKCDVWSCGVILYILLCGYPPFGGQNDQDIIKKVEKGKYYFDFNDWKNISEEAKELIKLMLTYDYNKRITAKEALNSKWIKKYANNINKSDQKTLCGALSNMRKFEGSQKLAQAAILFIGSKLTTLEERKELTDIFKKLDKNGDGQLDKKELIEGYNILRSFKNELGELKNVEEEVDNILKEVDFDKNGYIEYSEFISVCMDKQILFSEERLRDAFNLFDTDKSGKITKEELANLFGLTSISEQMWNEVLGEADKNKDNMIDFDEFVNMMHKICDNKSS
In short: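 Single-point testing used 1 μM final compound, then dose-response, against CDPK4 and CDPK1 with Syntide-2 (40 μM) as substrate. After 90 min, reactions were halted by 5 mM EGTA, and kinase activity was inferred from depleted ATP via Kinase-Glo luminescence.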

[2] = molecular target: T2, Plasmodium falciparum protein kinase 6 (PK6) (Plasmodium falciparum, UniProt Q8IDW1); experiment: biochemical
T2 construct: 6-Histidine (N); made in house
T2 sequence (Q8IDW1 1-305): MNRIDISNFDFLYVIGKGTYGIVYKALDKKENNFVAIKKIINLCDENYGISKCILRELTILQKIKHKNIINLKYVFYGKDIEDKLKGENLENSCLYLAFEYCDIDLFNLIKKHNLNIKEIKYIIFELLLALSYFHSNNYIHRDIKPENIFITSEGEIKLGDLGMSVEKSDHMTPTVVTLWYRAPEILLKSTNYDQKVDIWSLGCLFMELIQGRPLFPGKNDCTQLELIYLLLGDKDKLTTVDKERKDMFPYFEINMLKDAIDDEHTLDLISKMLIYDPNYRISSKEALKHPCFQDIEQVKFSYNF

[3] = tested on: HepG2 cells; conditions: HepG2 cells; ref ChEMBL; cited from earlier work
[4] = tested on: P. falciparum 3D7 cells; conditions: P. falciparum 3D7; ref ChEMBL; cited from earlier work
[5] = tested on: P. falciparum DD2; design: method as in ChEMBL; conditions: ref ChEMBL; cited from earlier work
[6] = tested on: 3D7 PFLDH; design: method as in ChEMBL; conditions: ref ChEMBL; cited from earlier work
[7] = hits below 1 uM, read-out: CDPK1 IC50
[8] = hits below 1 uM, read-out: PK6 IC50

SMILES | IC50 [1, 7] | IC50 [2, 8] | PCT_INHIB_HEPG2 [3] | PCT_IHB_3D7 [4] | pXC50_3D7 [4] | PCT_INHB_DD2 [5] | PCT_INHIB_3D7_PFLDH [6] | IC50 [1] | IC50 [2]
Cl.Nc1ncnc2occ(-c3ccc(NC(=O)Nc4cc(C(F)(F)F)ccc4F)cc3)c12 [TCMDC-141371] | 0.165 µM | 0.335 µM | 57 | 99 | 5.765 | 99 | 0 | – | –
Cc1ccc(Nc2ccnc(Nc3ccc4c(c3)CS(=O)(=O)C4)n2)cc1O.Cl [TCMDC-138484] | 0.416 µM | 0.122 µM | 82 | 100 | 6.14 | 76 | 5 | – | –
O=CO.O=S1(=O)NCc2ccc(Nc3nccc(Nc4ccc5c(cnn5Cc5ccccc5)c4)n3)cc21 [TCMDC-138840] | 0.11 µM | 0.265 µM | 0 | 94 | 6.125 | 33 | 0 | – | –
COc1ccc(Nc2ncc3c(-c4cccc(NC(=O)Cc5ccc(O)cc5)c4)c[nH]c3n2)cc1OC [TCMDC-135248] | 0.098 µM | 0.445 µM | 48 | 100 | 6.244 | 99 | 0 | – | –
CCN(CC)CCOc1ccc(Nc2ncc3cc(-c4c(Cl)cccc4Cl)c(=O)n(C)c3n2)cc1 [TCMDC-140940] | – | – | 72 | 90 | 5.929 | 91 | 1 | 0.78 µM | 0.35 µM
CCN(CC)CCNC(=O)c1ccc(Nc2ncc([N+](=O)[O-])c(Nc3ccccc3OC)n2)cc1.Cl [TCMDC-138727] | – | 0.11 µM | 59 | 97 | 6.841 | 58 | 0 | – | –
Cn1nc(-c2ccc(NC(=O)Nc3ccc4ccccc4c3)c(F)c2)c2cnc(NCCN3CCOCC3)nc21.O=C(O)C(F)(F)F [TCMDC-141561] | – | 0.86 µM | 62 | 93 | 5.992 | 3 | 1 | – | –
Br.CC(=O)Nc1nc(C)c(-c2csc(Nc3ccc(Cl)cc3)n2)s1 [TCMDC-123995] | – | 0.095 µM | 14 | 96 | 6.589 | 93 | 0 | – | –
Cc1ccc(S(=O)(=O)Nc2ccc(Nc3nccc(Nc4cccc5[nH]ncc45)n3)cc2)cc1 [TCMDC-136297] | – | 0.823 µM | 57 | 90 | 6.019 | 5 | 6 | – | –
O=C(Cc1ccc(Nc2nccc(Nc3cccc4[nH]ncc34)n2)cc1)Nc1ccc(C(F)(F)F)cc1 [TCMDC-136243] | – | 0.167 µM | 12 | 100 | 6.052 | 69 | 0 | – | –
N=C(N)c1ccc(Nc2nccc(Nc3nc(-c4ccccc4)cs3)n2)cc1.O=C(O)C(F)(F)F [TCMDC-136090] | – | 0.413 µM | 13 | 96 | 6.122 | 75 | 0 | – | –
Cl.N=C(N)c1ccc(Nc2nc(Nc3ccc(-c4ccccc4)cc3)ncc2[N+](=O)[O-])cc1 [TCMDC-136145] | – | 0.164 µM | 11 | 99 | 6.095 | 35 | 0 | – | –
COc1cccc(-n2ncc3c(N/N=C/c4ccc(CN(C)CCN(C)C)cc4)ncnc32)c1 [TCMDC-138728] | – | 0.058 µM | 29 | 100 | 6.049 | 91 | 0 | – | –
